Patent US9815819B2, “Complement pathway modulators and uses thereof” (priority 2012, dated 2017)
pIC50: −log10 of the molar value.

Molecular target: Recombinant human factor D (Homo sapiens (Human), UniProt P00746)
Assay: Human Complement Factor D Assay: Method 1
Format: biochemical
Details: Factor D inhibition, Method 1: 10 nM factor D, 1 hour incubation with compound at room temperature, substrate Z-Lys-thiobenzyl, fluorescence readout; read-out: IC50
Protocol: Recombinant human factor D (expressed in E. coli and purified using standard methods) at 10 nM concentration is incubated with test compound at various concentrations for 1 hour at room temperature in 0.1 M Hepes buffer, pH 7.5, containing 1 mM MgCl2, 1 M NaCl and 0.05% CHAPS. […] IC50 values are calculated from percentage of inhibition of complement factor D-activity as a function of test compound concentration.

Chain of Recombinant human factor D (P00746 26-253): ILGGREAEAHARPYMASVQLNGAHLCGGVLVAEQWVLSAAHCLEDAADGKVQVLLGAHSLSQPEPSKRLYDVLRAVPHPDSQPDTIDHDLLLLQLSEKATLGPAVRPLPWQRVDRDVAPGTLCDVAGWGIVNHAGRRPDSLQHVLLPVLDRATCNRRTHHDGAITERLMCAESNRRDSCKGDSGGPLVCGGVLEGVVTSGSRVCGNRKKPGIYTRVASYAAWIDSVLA

Row | Structure (SMILES) | pIC50
1 | NC(=O)c1nn(CC(=O)N2[C@@H]3C[C@@H]3C[C@H]2C(=O)N[C@@H]2C[C@H]2c2ccccc2)c2cnccc12 [Example 9, 1-{2-Oxo-2-[(1R,3S,5R)-3-((1R,2S)-2-phenyl-cyclopropylcarbamoyl)-2-aza-bicyclo[3.1.0]hex-2-yl]-ethyl}-1H-pyrazolo[3,4-c]pyridine-3-carboxylic acid amide] | 7.19
2 | CC(=O)c1nn(CC(=O)N2[C@@H]3C[C@@H]3C[C@H]2C(=O)N[C@@H]2C[C@H]2c2ccccc2)c2cnccc12 [Example 5, (1R,3S,5R)-2-[2-(3-Acetyl-pyrazolo[3,4-c]pyridin-1-yl)-acetyl]-2-aza-bicyclo[3.1.0] hexane-3-carboxylic acid ((1R,2S)-2-phenyl-cyclopropyl)-amide] | 6.97
